# The source made the active and inactive calls. No cut-off for these calls is given here.
# Key:
# [1] = molecular target: T1, Alpha-glucosidase (Saccharomyces cerevisiae S288c, UniProt P53341+P38158+P07265); experiment: Inhibition of yeast alpha-glucosidase; type: protein assay
# [2] = molecular target: T2, Alpha-glucosidase (Saccharomyces cerevisiae S288c) (UniProt P53341+P38158+P07265); experiment: Inhibition of yeast alpha glucosidase at 50 uM relative to control; type: protein assay
# [3] = molecular target: T2, Alpha-glucosidase (Saccharomyces cerevisiae S288c); experiment: Potency index, ratio of acarbose IC50 to test compound IC50 for inhibition of yeast alpha glucosidase; type: protein assay
# [4] = molecular target: T1, Alpha-glucosidase; experiment: Inhibition of alpha-glucosidase (unknown origin); type: protein assay, Homo sapiens
# [5] = molecular target: T2, Alpha-glucosidase (Saccharomyces cerevisiae S288c); experiment: Competitive inhibition of yeast alpha-glucosidase assessed as […] with constant Vmax by Lineweaver-Burk plot analysis; type: protein assay
# [6] = molecular target: T1, Alpha-glucosidase; experiment: Binding affinity to yeast alpha glucosidase assessed as inhibition constant; type: protein assay
# [7] = molecular target: T1, Alpha-glucosidase; experiment: Inhibition of Saccharomyces cerevisiae alpha-glucosidase using p-nitrophenyl-alpha-D-glucopyranoside as substrate preincubated for 5 mins followed by substrate addition and measured after 30 mins by spectrophotometric analysis; type: protein assay
IC50 [1] [µM],inhibition [2] [%],Structure (SMILES),also measured
4.14,> 80,Cc1coc2c3ccc4c(c3c3oc(Cc5ccccc5)nc3c12)CCCC4(C)C,
3.21,> 80,Cc1coc2c3ccc4c(c3c3oc(Cc5ccc(O)cc5)nc3c12)CCCC4(C)C,
,< 80,Cc1coc2c3ccc4c(c3c3oc(-c5ccc(Br)cc5)nc3c12)CCCC4(C)C,
,< 80,Cc1coc2c3ccc4c(c3c3oc(-c5ccccc5C(F)(F)F)nc3c12)CCCC4(C)C,
3.45,> 80,Cc1coc2c3ccc4c(c3c3oc(-c5ccc(Cl)cc5)nc3c12)CCCC4(C)C,Ratio IC50 [3]: 30
9.46,> 80,Cc1coc2c3ccc4c(c3c3oc(CCc5ccccc5)nc3c12)CCCC4(C)C,
6.67,> 80,Cc1coc2c3ccc4c(c3c3oc(-c5ccc(Cl)c(Cl)c5)nc3c12)CCCC4(C)C,
,< 80,Cc1coc2c3ccc4c(c3c3oc(-c5ccccc5F)nc3c12)CCCC4(C)C,
2.33,> 80,Cc1coc2c3ccc4c(c3c3oc(-c5ccc(C(F)(F)F)cc5)nc3c12)CCCC4(C)C,
,< 80,COc1ccc(-c2nc3c(o2)c2c4c(ccc2c2occ(C)c32)C(C)(C)CCC4)c(OC)c1,
,,Oc1ccc(/C=N/c2nnc(-c3ccc(O)cc3)o2)cc1,IC50 [4]: 0.3 µM
0.73,> 80,Cc1coc2c3ccc4c(c3c3oc(Cc5ccc(O)c(O)c5)nc3c12)CCCC4(C)C,inhibition [5]: Active; Ki [6]: 12.1 µM
,< 80,Cc1coc2c3ccc4c(c3c3oc(CCCc5ccccc5)nc3c12)CCCC4(C)C,
11.39,> 80,Cc1coc2c1C(=O)C(=O)c1c-2ccc2c1CCCC2(C)C [TANSHINONE IIA],
,,C=C(C)[C@@H]1CC[C@]2(C(=O)NCC(=O)O)CC[C@]3(C)[C@H](CC[C@@H]4[C@@]5(C)Cc6c([nH]c7ccccc67)C(C)(C)[C@@H]5CC[C@]43C)[C@@H]12,IC50 [7]: 0.04 µM
3.51,> 80,Cc1coc2c3ccc4c(c3c3oc(-c5ccccc5)nc3c12)CCCC4(C)C,
,< 80,COc1cc(-c2nc3c(o2)c2c4c(ccc2c2occ(C)c32)C(C)(C)CCC4)ccc1O,
